Reference: patent US9889152B2, “Multiple PPI dosage form” (TAKEDA PHARMACEUTICALS U.S.A., INC., priority 2004, dated 2018)

Assays:
gastric pH = test: Threshold level modeling: effect compartment / sigmoid Emax PK-PD model of intragastric pH versus lansoprazole concentration after single intravenous doses; type: in vivo, humans; conditions: effect compartment concentration (assumed same as plasma concentration at steady-state), fasting, FIG. 1
Source text: Plasma concentration data obtained following administration of single intravenous doses of lansoprazole in humans was modeled to establish threshold concentrations above which a PPI is effective. Initially, gastric pH measured over the five hours post dosing (under fasting conditions) was plotted as a function of plasma concentration. However, no direct relationship between the gastric pH and the drug's plasma concentration could be established. […] An effect compartment model was then used in an attempt to delineate a useful relationship between drug concentration and effect. Accordingly, a model was proposed where a PK compartment was linked to a separate effect compartment. […] Using the same intravenous data, the pharmacological effect was modeled using sigmoid Emax model and PK was modeled using the two compartment model. The modeling first established the pharmacokinetic characteristics of lansoprazole, then the relationship between drug plasma concentration and intragastric pH was established, and pharacodynamic parameter estimates were obtained. The modeling provided the graph shown in FIG. 1 where the effect compartment concentration (assumed to be the same as the plasma concentration at steady-state) is on the x-axis and gastric pH on the y-axis. […]

[1] = Site of absorption study (Phase 1, remote control capsule, segmental absorption and pharmacokinetics); type: in vivo, human; conditions: 30 mg powder with sodium bicarbonate released via remote control capsule; healthy adult males
Source text: This was a Phase 1, open-label, non-randomized, four-period, single-dose, crossover study in 8 healthy adult males. […] Upon receiving a remote signal during Periods 1, 2, and 3, the capsule released it's contents in the pre-designated site within the GI tract (see table 1 below).
Indium-111 chloride (^111 In-chloride) was used as the radioactive marker in the test formulation that was filled into remote control capsule. Each subject also received a second radioisotope, technetium-99m DTPA (^99mTc-DTPA), in the water used to swallow the InteliSite Companion capsule. Since the radioisotopes are not absorbed, progress of the formulation through the GI tract was monitored using a gamma camera that captures images at frequent intervals after ingestion of the dose. The radioisotope in the water outlined or “mapped” the GI tract to delineate the targeted site of drug release. […]
The relative bioavailability of lansoprazole delivered to the proximal small intestine, distal small intestine, or colon compared to the delayed release lansoprazole capsule was calculated as the ratios of AUC∞ for different GI regions to that of the delayed release capsule. In addition, the relative bioavailability of lansoprazole delivered to the distal small intestine and colon compared to the proximal small intestine was calculated.

- extent of absorption when directly delivered to the colon [1]: reduced
SMILES: Cc1c(OCC(F)(F)F)ccnc1C[S+]([O-])c1nc2ccccc2[nH]1 (stereo not shown) [lansoprazole]
- concentration above which the effect on gastric pH levels off (gastric pH): ~450 ng/ml
- threshold concentration above which the effect of the drug (rise of gastric pH above baseline) begins (gastric pH): approximately 100 ng/ml
- rate and extent of absorption from the distal small intestine versus proximal intestine [1]: less than those obtained for the proximal intestine, although the absorptions were comparable
